Test: mn = molality of the nth substance listed, in mol/kg
Details: Liquid, Vibrating tube method

[Cl-].[Cl-].[Zn+2] [zinc chloride] + CO
Details	mass density [kg/m3]
348.27 K, 19998 kPa, m1 = 0.1348	775.25
348.27 K, 20001 kPa, m1 = 5.367	1160.36
348.27 K, 20003 kPa, m1 = 1.039	851.34
348.27 K, 24987 kPa, m1 = 1.977	930.28
348.27 K, 24989 kPa, m1 = 0.8018	837.48
348.27 K, 24994 kPa, m1 = 0.1348	780.25
348.27 K, 24994 kPa, m1 = 1.039	856.19
348.27 K, 24996 kPa, m1 = 0.4768	810.44
348.27 K, 25001 kPa, m1 = 5.367	1164.74
348.27 K, 29985 kPa, m1 = 0.4768	815.14
348.27 K, 29987 kPa, m1 = 0.8018	842.17
348.27 K, 29990 kPa, m1 = 1.977	934.86
348.27 K, 29998 kPa, m1 = 0.1348	785.01
348.27 K, 30011 kPa, m1 = 5.367	1169.01
348.27 K, 30014 kPa, m1 = 1.039	860.81
348.27 K, 34985 kPa, m1 = 1.977	939.27
348.27 K, 34987 kPa, m1 = 0.4768	819.64
348.27 K, 34988 kPa, m1 = 0.8018	846.66
348.27 K, 34990 kPa, m1 = 1.039	865.23
348.27 K, 34990 kPa, m1 = 5.367	1173.15
348.27 K, 34998 kPa, m1 = 0.1348	789.52
348.27 K, 39984 kPa, m1 = 5.367	1177.19
348.27 K, 39991 kPa, m1 = 1.039	869.48
348.27 K, 39993 kPa, m1 = 1.977	943.53
348.27 K, 39998 kPa, m1 = 0.1348	793.81
348.27 K, 39999 kPa, m1 = 0.8018	850.97
348.27 K, 40007 kPa, m1 = 0.4768	823.94
373.3 K, 523 kPa, m1 = 0.8018	783.25
373.3 K, 527 kPa, m1 = 0.4768	755.9
373.3 K, 527 kPa, m1 = 1.977	876.84
373.3 K, 533 kPa, m1 = 0.1348	725.48
373.3 K, 535 kPa, m1 = 5.367	1112.11
373.3 K, 536 kPa, m1 = 1.039	802.51
373.3 K, 4986 kPa, m1 = 5.367	1117.02
373.3 K, 4988 kPa, m1 = 1.039	808.88
373.3 K, 4990 kPa, m1 = 0.4768	762.64
373.3 K, 4994 kPa, m1 = 0.8018	789.83
373.3 K, 4995 kPa, m1 = 0.1348	732.41
373.3 K, 5003 kPa, m1 = 1.977	882.85
373.3 K, 9984 kPa, m1 = 0.4768	769.58
373.3 K, 9984 kPa, m1 = 0.8018	796.61
373.3 K, 9985 kPa, m1 = 0.1348	739.51
373.3 K, 9986 kPa, m1 = 1.977	889.12
373.3 K, 9995 kPa, m1 = 1.039	815.55
373.3 K, 10002 kPa, m1 = 5.367	1122.33
373.3 K, 14985 kPa, m1 = 0.4768	776
373.3 K, 14990 kPa, m1 = 5.367	1127.43
373.3 K, 15001 kPa, m1 = 0.1348	746.08
373.3 K, 15005 kPa, m1 = 0.8018	802.94
373.3 K, 15009 kPa, m1 = 1.039	821.76
373.3 K, 15009 kPa, m1 = 1.977	895.06
373.3 K, 19986 kPa, m1 = 0.1348	752.14
373.3 K, 19987 kPa, m1 = 0.4768	781.98
373.3 K, 20001 kPa, m1 = 1.039	827.53
373.3 K, 20005 kPa, m1 = 0.8018	808.85
373.3 K, 20008 kPa, m1 = 5.367	1132.37
373.3 K, 20012 kPa, m1 = 1.977	900.64
373.3 K, 24985 kPa, m1 = 0.4768	787.59
373.3 K, 24989 kPa, m1 = 1.039	832.97
373.3 K, 24990 kPa, m1 = 0.8018	814.38
373.3 K, 24992 kPa, m1 = 0.1348	757.83
373.3 K, 25001 kPa, m1 = 1.977	905.94
373.3 K, 25001 kPa, m1 = 5.367	1137.12
373.3 K, 29985 kPa, m1 = 0.1348	763.18
373.3 K, 29988 kPa, m1 = 1.977	910.98
373.3 K, 29993 kPa, m1 = 1.039	838.14
373.3 K, 29994 kPa, m1 = 5.367	1141.72
373.3 K, 29997 kPa, m1 = 0.8018	819.65
373.3 K, 30012 kPa, m1 = 0.4768	792.89
373.3 K, 34983 kPa, m1 = 0.8018	824.61
373.3 K, 34984 kPa, m1 = 1.039	843.03
373.3 K, 34986 kPa, m1 = 5.367	1146.17
373.3 K, 34987 kPa, m1 = 0.4768	797.89
373.3 K, 34997 kPa, m1 = 1.977	915.82
373.3 K, 35008 kPa, m1 = 0.1348	768.23
373.3 K, 39990 kPa, m1 = 1.039	847.71
373.3 K, 39991 kPa, m1 = 0.8018	829.37
373.3 K, 39993 kPa, m1 = 0.1348	773.04
373.3 K, 39995 kPa, m1 = 5.367	1150.53
373.3 K, 39997 kPa, m1 = 1.977	920.45
373.3 K, 40000 kPa, m1 = 0.4768	802.68
398.33 K, 893 kPa, m1 = 0.1348	695.88
398.33 K, 899 kPa, m1 = 5.367	1083.75
398.33 K, 904 kPa, m1 = 1.039	773.5
398.33 K, 905 kPa, m1 = 1.977	848.36
398.33 K, 907 kPa, m1 = 0.8018	754.11
398.33 K, 908 kPa, m1 = 0.4768	726.55
398.33 K, 4981 kPa, m1 = 0.4768	734.09
398.33 K, 4985 kPa, m1 = 1.977	854.8
398.33 K, 4988 kPa, m1 = 0.8018	761.4
398.33 K, 4994 kPa, m1 = 0.1348	703.77
398.33 K, 5002 kPa, m1 = 5.367	1088.78
398.33 K, 5004 kPa, m1 = 1.039	780.59
398.33 K, 9983 kPa, m1 = 0.4768	742.44
398.33 K, 9984 kPa, m1 = 0.1348	712.39
398.33 K, 9984 kPa, m1 = 0.8018	769.52
398.33 K, 9988 kPa, m1 = 5.367	1094.64
398.33 K, 9993 kPa, m1 = 1.039	788.48
398.33 K, 9999 kPa, m1 = 1.977	862.15
398.33 K, 14985 kPa, m1 = 1.039	795.7
398.33 K, 14988 kPa, m1 = 0.1348	720.18
398.33 K, 14993 kPa, m1 = 0.4768	750.05
398.33 K, 14994 kPa, m1 = 0.8018	776.95
398.33 K, 15018 kPa, m1 = 5.367	1100.25
398.33 K, 15019 kPa, m1 = 1.977	868.94
398.33 K, 19982 kPa, m1 = 0.8018	783.77
398.33 K, 19982 kPa, m1 = 1.039	802.38
398.33 K, 19984 kPa, m1 = 0.1348	727.3
398.33 K, 19994 kPa, m1 = 0.4768	757.02
398.33 K, 19996 kPa, m1 = 1.977	875.28
398.33 K, 20003 kPa, m1 = 5.367	1105.62
398.33 K, 24984 kPa, m1 = 1.039	808.61
398.33 K, 24989 kPa, m1 = 5.367	1110.77
398.33 K, 24992 kPa, m1 = 0.4768	763.47
398.33 K, 25003 kPa, m1 = 0.1348	733.89
398.33 K, 25006 kPa, m1 = 0.8018	790.16
398.33 K, 25009 kPa, m1 = 1.977	881.23
398.33 K, 29990 kPa, m1 = 1.977	886.89
398.33 K, 29994 kPa, m1 = 0.8018	796.1
398.33 K, 29996 kPa, m1 = 0.1348	740.01
398.33 K, 29996 kPa, m1 = 1.039	814.47
398.33 K, 29999 kPa, m1 = 5.367	1115.75
398.33 K, 30005 kPa, m1 = 0.4768	769.51
398.33 K, 34992 kPa, m1 = 0.4768	775.14
398.33 K, 34993 kPa, m1 = 0.1348	745.75
398.33 K, 35003 kPa, m1 = 5.367	1120.56
398.33 K, 35010 kPa, m1 = 1.039	819.97
398.33 K, 35011 kPa, m1 = 0.8018	801.72
398.33 K, 35014 kPa, m1 = 1.977	892.27
398.33 K, 39988 kPa, m1 = 1.977	897.37
398.33 K, 39989 kPa, m1 = 0.1348	751.12
398.33 K, 39992 kPa, m1 = 0.8018	807.01
398.33 K, 39994 kPa, m1 = 5.367	1125.22
398.33 K, 39997 kPa, m1 = 1.039	825.19
398.33 K, 40002 kPa, m1 = 0.4768	780.53

From the NIST ThermoML archive (doi:10.1021/je050509f)
